Experimental data reported in patent US20260306525A1, “COMBINATION THERAPY GLUCOCORTICOIDS AND GINSENOSIDE” (FYTAGORAS B.V., priority 2023, published 2026).
Blank lines part the entries; values can stand above or below the compound they belong to.

Experiments:
[1] = tested on: zebrafish larvae; assay: whole-body cortisol measurement of zebrafish larvae (ELISA); conditions: for whole-body cortisol level: Example 2, non-wounded; for whole-body cortisol level / whole-body cortisol level upon wounding: 5 dpf; for whole-body cortisol level upon wounding: Example 2, wounded at 2 dpf; for whole body cortisol level: 0-4 dpf, 10 μM beclomethasone, 50 μM Rg1 or combination
Method: Ethyl acetate was added to the homogenate. The homogenates were then centrifuged at 4° C. for 8 min at 11,000 rpm and the supernatant was collected and vaporized. A volume of 150 μl of 0.2% Bovine serum albumin (Sigma-Aldrich) dissolved in PBS was added to the samples and frozen. Whole-body cortisol levels of the zebrafish larvae were determined by ELISA (Demeditec Diagnostics GmbH, Kiel-Wellsee, Germany), following the manufacturer's instructions. In each experiment, three biological replicates were used for each treatment group, and the ELISA was performed using technical duplicates.
Tail fin wounding were performed at 2 days post-fertilization (dpf). At 96hpf, the treatments were stopped, and larvae were incubated in egg water until 5 dpf to avoid cross-reactivity between the compounds and the cortisol antibody used in the ELISA. At dpf, the larvae were collected in an Eppendorf tube (30 larvae per sample), and 100 μl of ice-cold egg water was added. After the excess water had been taken out, the samples were glaciated in ethanol (EtOH)/dry-ice bath. Subsequently, the larvae were homogenized using a BulletBlender® for 3 min at 8,000 rpm. Ethyl acetate was added to the homogenate. The homogenates were then centrifuged at 4° C. for 8 min at 11,000 rpm, and the supernatant was collected and vaporized. A volume of 150 μl of 0.2% bovine serum albumin (Sigma-Aldrich) dissolved in PBS was added to the samples and frozen. Whole-body cortisol levels of the zebrafish larvae were determined using a Cortisol free in Saliva ELISA kit (Demeditec Diagnostics GmbH, Kiel-Wellsee, Germany), following the manufacturer's instructions. In each experiment, three biological replicates were used for each treatment group, and the ELISA was performed using technical duplicates.

[2] = tested on: macrophages; assay: zebrafish tail fin wounding assay, macrophage migration to wounded site; assay type: in vivo, zebrafish (Danio rerio); conditions: Example 2; PPT 50 μM; F1, Rh1, Rg1 100 μM; Bec positive control; 3 dpf
Method: Zebrafish (Danio rerio) were maintained and handled according to the guidelines from the Zebrafish Model Organism Database (http://zfin.org) and in compliance with the directives of the local animal welfare committee of Leiden University. Zebrafish were exposed to a 14 h light and 10 h dark cycle to maintain circadian rhythmicity. Fertilization was performed by natural spawning at the beginning of the light period. […] The following zebrafish lines were used in this study: the double transgenic line Tg(mpx:GFP^i114/mpeg1:mCherry^umsF001), in which neutrophils and macrophages are fluorescently labeled (green and red, respectively), and the Tg(9xGCRE-HSV.UI23:EGFP)^ia20 reporter line, in which the gene encoding enhanced green fluorescent protein (EGFP) is driven by a GRE-containing promoter.
For the tail fin wounding experiments, 20 larvae at 2 or 3 days post-fertilization (dpf) were utilized for each experimental group. For wounding, larvae were anesthetized in egg water containing 0.02% buffered aminobenzoic acid ethyl ester (tricaine; Sigma-Aldrich). Larvae were placed on Petri dishes coated with 2% agarose under a Leica M165C stereomicroscope (Leica Microsystems, Wetzlar, Germany), and the tails were partly amputated using a 1-mm sapphire blade (World Precision Instruments, Sarasota, FL, USA). For quantification of leukocyte migration, larvae were fixed overnight in 4% paraformaldehyde (PFA) at 4° C. The next day, fixed larvae were washed with Phosphate Buffered Saline (PBS) containing 0.1% Tween 20, and stored at 4° C. until imaging.
The macrophages were detected based on their red (mCherry) fluorescence, and neutrophils based on their green (EGFP) fluorescence. To quantify the number of macrophages and neutrophils recruited to the wounded area, the cells in a defined area of the tail were determined by blinded manual counting.
Zebrafish (Danio rerio) were maintained and handled according to the guidelines from the Zebrafish Model Organism Database (http://zfin.org) and in compliance with the directives of the local animal welfare committee of Leiden University. Zebrafish were exposed to a 14 h light and 10 h dark cycle to maintain circadian rhythmicity. Fertilization was performed by natural spawning at the beginning of the light period. […] The following zebrafish lines were used in this study: AB/TL wild type, the transgenic lines Tg(mpx:GFP^i114/mpeg1:mCherry^umsF001)[14, 15], and Tg(9xGCRE-HSV.UI23:EGFPia^20)[16], and the mutant lines grs357[20].
For the tail fin wounding experiments, 2- or 3-days post-fertilization (dpf) larvae were anesthetized in egg water containing 0.02% buffered aminobenzoic acid ethyl ester (tricaine; Sigma-Aldrich). Larvae were placed in Petri dishes coated with 2% agarose under a Leica M165C stereomicroscope (Leica Microsystems, Wetzlar, Germany), and the tails were partly amputated using a 1-mm sapphire blade (World Precision Instruments, Sarasota, FL, USA).
In experiments in which the leukocyte migration was used as a readout, larvae were subjected to treatment with chemicals as indicated, starting at 2 h before the amputation (pretreatment), and treatment was continued for 4 h after the tail fin amputation (20 larvae per group, unless indicated otherwise). In some experiments, a 24 h treatment with MZ31 (10 μM) was started at 2 dpf, and these treatments were continued during the pretreatment and treatment with the other chemicals. At 4 h after amputation, the larvae were fixed in 4% paraformaldehyde (PFA) overnight at 4° C. The next day, fixed larvae were washed with Phosphate Buffered Saline (PBS) containing 0.1% Tween 20 and stored at 4° C. until imaging. […] The macrophages were detected based on red (mCherry) fluorescence and neutrophils on their green (EGFP) fluorescence. To quantify the number of macrophages and neutrophils recruited to the wounded area, the cells in a defined area of the tail were determined by blinded manual counting. […]

[3] = tested on: mmp13; assay: qPCR mmp13 expression in zebrafish larvae; assay type: in vivo, zebrafish (Danio rerio); conditions: Example 2, wounded larvae
Method: To determine mRNA levels of specific genes in zebrafish, 3 dpf larvae were used (wounded and non-wounded) and after 6 h of chemical treatments (2 h pre-wounding, 4 h post-wounding), as indicated. Per sample, groups of 15 larvae were collected in TRIzol reagent (Thermo Fisher Scientific, Waltham, MA, USA), and total RNA was isolated using the miRNeasy mini kit (Qiagen, Hilden, Germany). For similar experiments in Hela cells, cells were seeded in 6 well plates, and after 6 h of chemical treatment, the cells were removed from the wells using TRIzol reagent, and total RNA was isolated using the miRNeasy mini kit according to the manufacturer's instructions. The RNA samples were DNAse-treated utilizing the DNA-free™ DNA Removal Kit (Thermo Fisher Scientific). The cDNA synthesis was performed using the iScript cDNA synthesis kit (Bio-Rad Laboratories, Hercules, CA, USA) using 1 μg of RNA per sample. For the PCR reactions, 10 μM of forward and 10 μM of reverse primer, 12.5 μl of iQ SYBR Green Supermix (Bio-Rad), and 2 μl of cDNA were added to the qPCR reaction mixture. […] The reactions were performed on a MyiQ-single-color real-time PCR detection system (Bio-Rad Laboratories) with initial denaturation for 3 min at 95° C. and 40 cycles of 15 s at 95.5° C., 15 s at 60° C., and 30 s at 72° C. Cycle threshold values (Ct values, i.e. the cycle numbers at which a threshold value of the fluorescence intensity was reached) were determined for each sample. The gene expression level for each sample was normalized using the expression of ppial (peptidylprolyl isomerase Ab (cyclophilin A)) for zebrafish samples, 18S rRNA for human cells. The fold change per sample (compared to the respective control group) was calculated using the ΔΔCt method.

[4] = tested on: zebrafish larvae; assay: larval body length; conditions: for larval length: Example 2, 5 dpf; for larval length at 5 dpf: 0-5 dpf, 10 μM beclomethasone, 50 μM Rg1 or combination
Method: (§2) In experiments in which the length of regenerated tail fin tissue after wounding, or the larval body length, was used as a readout, chemical treatments were started at 2 hours post-fertilization (hpf) and continued until 5 dpf, as indicated (15 larvae per treatment group). During this period, solutions were refreshed daily. For the regeneration experiments, tail fins were amputated at 2 dpf. At 5 dpf, larvae were fixed overnight in 4% PFA at 4° C. For determination of the larval length and the regeneration of the tail fins, larvae were imaged using a LeicaMZ16FA fluorescence stereomicroscope supported by LAS 3.7 software. The length of the entire larva or the newly grown tissue was measured using ImageJ software. The newly grown tissue can be visually distinguished from the old tissue, enabling precise measurement of its length.

[5] = tested on: gr; assay: Gr transactivation activity in Tg(9xGCRE-HSV.UI23:EGFP)ia20 reporter larvae; assay type: in vivo, zebrafish (Danio rerio); conditions: for GFP fluorescence intensity (Gr transactivation): Example 2, 24 h, 3 dpf
Method: (§1) To investigate the Gr transactivation activity in zebrafish larvae, the Tg(9xGCRE-HSV.UI23:EGFP)^ia20 reporter line was used, which expresses enhanced green fluorescent protein (EGFP) under the control of a promoter containing an array of nine GREs. […] The integrated intensity of the EGFP signal in the larvae was determined using ImageJ software.
as §1, with “Tg(9xGCRE-HSV.UI23:EGFP^ia20)” for “Tg(9xGCRE-HSV.UI23:EGFP)^ia20”

[6] = tested on: zebrafish larvae; assay: tail fin regeneration assay; conditions: for tissue regeneration of tail fin: Example 2, amputation at 2 dpf, read at 5 dpf; for tissue regeneration upon wounding: Example 2, wounded at 2 dpf (second statement on FIG. 8F); for regeneration of amputated tail fin (length of regenerated tissue at 5 dpf): 0-5 dpf, 10 μM beclomethasone or dexamethasone, 50 μM Rg1 or combinations, amputation at 2 dpf
Method: as §2

SMILES: CC(C)=CCC[C@](C)(O[C@@H]1O[C@H](CO)[C@@H](O)[C@H](O)[C@H]1O)[C@H]1CC[C@]2(C)[C@@H]1[C@H](O)C[C@@H]1[C@@]3(C)CC[C@H](O)C(C)(C)[C@@H]3[C@@H](O)C[C@]12C [F1]
whole-body cortisol level [1]: did not show any side effects
whole-body cortisol level upon wounding [1]: minor effect on the cortisol level and on tissue regeneration
cortisol effect upon wounding in presence of Gba2 inhibitor MZ31 ([1]; Example 2, wounded, with MZ31): These latter effects were Gba2-dependent
macrophage migration upon tail fin wounding [2]: without affecting the macrophage migration
mmp13 expression [3]: Only a minor effect
larval length [4]: did not show any side effects
GFP fluorescence intensity (Gr transactivation) [5]: none of the ginsenosides PPT, F1, Rh1, and Rg1 altered the fluorescence intensity
tissue regeneration of tail fin [6]: did not show any side effects
tissue regeneration upon wounding [6]: minor effect on the cortisol level and on tissue regeneration
tissue regeneration effect in presence of Gba2 inhibitor MZ31 ([6]; Example 2, wounded, with MZ31): These latter effects were Gba2-dependent

SMILES: CC(C)=CCC[C@](C)(O)[C@H]1CC[C@]2(C)[C@@H]1[C@H](O)C[C@@H]1[C@@]3(C)CC[C@H](O)C(C)(C)[C@@H]3[C@@H](O[C@@H]3O[C@H](CO)[C@@H](O)[C@H](O)[C@H]3O)C[C@]12C [Rh1]
whole-body cortisol level [1]: did not show any side effects
whole-body cortisol level upon wounding [1]: still not show any effect on the glucose or cortisol level or on tissue regeneration
macrophage migration upon tail fin wounding [2]: without affecting the macrophage migration
mmp13 expression [3]: no effect
larval length [4]: did not show any side effects
GFP fluorescence intensity (Gr transactivation) [5]: none of the ginsenosides PPT, F1, Rh1, and Rg1 altered the fluorescence intensity
tissue regeneration of tail fin [6]: did not show any side effects
tissue regeneration upon wounding [6]: still not show any effect on the glucose or cortisol level or on tissue regeneration

SMILES: CC(C)=CCC[C@](C)(O[C@@H]1O[C@H](CO)[C@@H](O)[C@H](O)[C@H]1O)[C@H]1CC[C@]2(C)[C@@H]1[C@H](O)C[C@@H]1[C@@]3(C)CC[C@H](O)C(C)(C)[C@@H]3[C@@H](O[C@@H]3O[C@H](CO)[C@@H](O)[C@H](O)[C@H]3O)C[C@]12C [Rg1, (3β,6α, 12β)-3,12-Dihydroxydammar-24-ene-6,20-diyl bis-β-D-glucopyranoside]
whole body cortisol level [1]: did not affect the whole-body glucose and cortisol concentrations
whole-body cortisol level [1]: did not show any side effects
whole-body cortisol level upon wounding [1]: still not show any effect on the glucose or cortisol level or on tissue regeneration
macrophage migration upon tail fin wounding [2]: without affecting the macrophage migration
mmp13 expression [3]: no effect
larval length at 5 dpf [4]: did not affect the larval length
larval length [4]: did not show any side effects
relative EGFP intensity (Gr transactivation) ([5]; 24 h from 2 dpf, 10 μM GC, 50 μM Rg1 or combination): did not affect the EGFP signal
GFP fluorescence intensity (Gr transactivation) [5]: none of the ginsenosides PPT, F1, Rh1, and Rg1 altered the fluorescence intensity
regeneration of amputated tail fin (length of regenerated tissue at 5 dpf) [6]: did not affect the regenerative process
tissue regeneration of tail fin [6]: did not show any side effects
tissue regeneration upon wounding [6]: still not show any effect on the glucose or cortisol level or on tissue regeneration

SMILES: CC(C)=CCC[C@](C)(O)[C@H]1CC[C@]2(C)[C@@H]1[C@H](O)C[C@@H]1[C@@]3(C)CC[C@H](O)C(C)(C)[C@@H]3[C@@H](O)C[C@]12C [PPT, Protopanaxatriol]
whole-body cortisol level [1]: did decrease the cortisol concentration
macrophage migration upon tail fin wounding [2]: without affecting the macrophage migration
mmp13 expression [3]: Only a minor effect
larval length [4]: minor effect on larval length
GFP fluorescence intensity (Gr transactivation) [5]: none of the ginsenosides PPT, F1, Rh1, and Rg1 altered the fluorescence intensity
tissue regeneration of tail fin [6]: considerably inhibited the regeneration of the tail fin after wounding

whole body cortisol level [1]: reduced whole body cortisol levels
whole-body cortisol level [1]: decrease in cortisol level
dose-response of whole-body cortisol level ([1]; beclomethasone 0.1, 1, 5, 10, 15 μM without or with 50 μM Rg1): dose-dependent effect
larval length at 5 dpf [4]: significantly decreased
larval length [4]: decrease in larval length
regeneration of amputated tail fin (length of regenerated tissue at 5 dpf) [6]: inhibited the regeneration
tissue regeneration of tail fin [6]: inhibited the tissue regeneration
SMILES: C[C@H]1C[C@H]2[C@@H]3CCC4=CC(=O)C=C[C@]4(C)[C@@]3(Cl)[C@@H](O)C[C@]2(C)[C@@]1(O)C(=O)CO [beclomethasone, reference compound]
macrophage migration upon tail fin wounding [2]: without affecting the macrophage migration
GFP fluorescence intensity (Gr transactivation) [5]: significant increase in the GFP signal throughout the body of the larvae
